The values below come from patent US5470883A (priority 1994, dated 1995).

Each structure is given as a SMILES string. Counter-ions that a name gives are not always drawn. Like-named read-outs stand apart in the source and are kept apart here.

The conditions of series [1]: cited from earlier work.
For series [2], the system named is mammary carcinoma in rats induced by DMBA. The conditions noted are these: cited from earlier work.
Series [3] deals with perfused rat mesentary. The conditions noted are these: cited from earlier work.
The subject of series [4] is estrogen-dependent breast cancer cell cultures. The conditions noted are these: cited from earlier work.
The test system of series [5] is tumor cultures without estrogen receptors. The note with it: cited from earlier work.
For series [6] the following is noted: mild to moderate renal failure; cited from earlier work.
For series [7], the system named is renal cortical necrosis. The note with it: induced by estrogen plus vasopression; cited from earlier work.
Series [8] has as its system breast cancer. The note with it: cited from earlier work.
The conditions of series [9]: 100 to 200 times the recommended daily dose; cited from earlier work.
The conditions of series [10]: humans; cited from earlier work.
In series [11] the test system is epinephrine vasoconstriction, central artery of the rabbit ear. Briefly: Transcutaneous oxygen monitor assessment of distal peripheral oxygen tension after epinephrine injection around the central artery of the rabbit ear. In kind it is in vivo, New Zealand adult white rabbits. The note with it: for effect of pretreatment on epinephrine-induced fall in peripheral blood flow / vasoconstriction: pretreatment two days, then epinephrine, estradiol 0.1 mg/kg/day, tamoxifen 2.0 mg/kg/day. The procedure: A study utilizing 18 New Zealand adult white rabbits was performed. […] This was injected through a 27 gauge needle directly surrounding the central artery of the rabbit ear. Distally peripheral tissue oxygen tension was assessed utilizing a precalibrated transcutaneous oxygen monitor. Measurements were taken prior to injection to maintenance of a steady state. If a steady state was not reached the experiment was discontinued and retried at a later time. Post-injection measurements were taken until the return to baseline levels or up to two hours post-injection. Measurements were taken at five minute intervals preinjection and at three minute intervals post-injection. Control injections utilized 0.1 cc. of intravenous saline solution.
In the second phase, six rabbits were used. The animals were pretreated with intravenous injections of estradiol (0.1 mg/kg/day) for two days.
In phase three, animals from the second group were treated with estradiol and tamoxifen was added (2.0 mg/kg/day) for two days after allowing three weeks for the original estradiol to wash out. Another group of six animals was pretreated with tamoxifen alone (2.0 mg/kg/day) for two days.

Where [12] appears, read: single oral dose approximately 0.3 mg/kg.

For `CC/C(=C(\c1ccccc1)c1ccc(OCCN(C)C)cc1)c1ccccc1` [tamoxifen citrate, (Z)2-[4-(1,2-diphenyl-1-butenyl)phenoxy]-N, N-dimethylethanamine 2-hydroxy-1,2,3-propranetricarboxylate (1:1)], in series [1] (excreted mainly as conjugates), the “unchanged drug and hydroxylated metabolites, share of total excreted” value is 30%. Besides, in series [1] (human, in vivo), the distribution half life was 7 to 14 h and the elimination half-life entry is on record as “greater than 7 days”. Moreover, in series [1] (in vivo), the excretion in urine entry is on record as “only small amounts are excreted in the urine” and the metabolism entry is on record as “metabolised in the liver”. Also, in series [1] (oral), the “absorption from the gastrointestinal tract” value is “well-absorbed from the gastrointestinal tract”. Moreover, in [1] (radiolabeled tamoxifen citrate, person), the “excretion of radioactivity in the feces” value is recorded as “most of the radioactivity is slowly excreted in the feces with only small amounts appearing in the urine”. For the same molecule, in series [1] (setting [12]), the initial half-life is 7 to 14 h; the “peak blood level of total radioactivity” value is on record as 0.06-0.14 micrograms/mL; the “secondary peaks, time” value is given as “four”; the “time of peak blood level of total radioactivity” value is 4 to 7 h. Besides, in [2] (administered with DMBA), the “frequency of tumor development” value is given as “decreases the frequency of tumor development”. Besides, in [2] (rats), the “effect on DMBA-induced mammary carcinoma” value is “inhibit or reverse mammary carcinoma in rats”. In addition, the calcium antagonism entry in [3] is given as “calcium antagonist in perfused rat mesentary”. Also, in [4], the cell reproduction entry is listed as “inhibit cell reproduction”. The “effect in tumor cultures” value in series [5] is listed as “no significant effect”. The “dose adjustment in renal failure” value in series [6] is recorded as “dose adjustments are not needed in mild to moderate renal failure”. Also, in series [7], the “effect on development of renal cortical necrosis” value is given as “have an effect on the development of renal cortical necrosis”. In addition, the “anti-tumor effect at higher dose” value in [8] (40 mg per day, metastatic breast cancer to the lung) is recorded as “higher anti-tumor effect”. In series [8] (80 mg daily), the “improvement at higher daily doses” value is listed as “have not generally resulted in greater improvement”. The delay of recurrence result in series [8] (following total mastectomy and axillary dissection or segmental mastectomy, axillary dissection, and breast radiation, axillary node-negative breast cancer) was “effective in delaying the reoccurence”. In [8] (following total mastectomy and axillary dissection, post-menopausal women), the delay of recurrence entry was “effective in delaying reoccurence”. The overdose toxicity entry in [9] was “respiratory difficulties and convulsions”. In addition, the overdose cases result in series [10] is recorded as “no cases of tamoxifen citrate overdose have been reported in humans”. Besides, in [11], the “effect of pretreatment on epinephrine-induced fall in peripheral blood flow / vasoconstriction” value is “completely reversed the vasoconstrictive effects of epinephrine”. The “effect of pretreatment on epinephrine-induced fall in peripheral blood flow / vasoconstriction” value in series [11] (listed as tamoxifen (Nolvadex)) is “completely inhibited”.
For the molecule `C[C@]12CC[C@@H]3c4ccc(O)cc4CC[C@H]3[C@@H]1CC[C@@H]2O` [estradiol], the “effect of pretreatment on epinephrine-induced fall in peripheral blood flow / vasoconstriction” value in [11] was “statistically similar fall in the peripheral blood flow as compared to those animals treated with epinephrine alone”.
Regarding `CNC[C@H](O)c1ccc(O)c(O)c1` [epinephrine], in series [11] (epinephrine 0.1 cc, 1:50,000), the “decreased blood flow, % of the preinjection level” value was 50% and the tissue necrosis result was “In no case was there any tissue necrosis”.
